Experimental data published in ChEMBL document CHEMBL3751691, “A Journey around the Medicinal Chemistry of Hepatitis C Virus Inhibitors Targeting NS4B: From Target to Preclinical Drug Candidates” (J Med Chem, 2016).
Blank lines part the entries; values can stand above or below the compound they belong to.

How the values were obtained:
Hepatitis C virus [1] = test: Antiviral activity against HCV genotype 1b infected in human Huh7 cells assessed as inhibition of viral replication by luciferase reporter-based viral replicon assay; type: functional, organism-based, Hepacivirus hominis; details: Huh-7
Hepatitis C virus [2] = test: Antiviral activity against HCV genotype 1b after 3 days by luciferase reporter assay; type: functional, organism-based, Hepacivirus hominis; details: 72 h
Hepatitis C virus [3] = test: Antiviral activity against HCV genotype 1b infected in Huh7.5 cells assessed as inhibition of viral replication at 72 hrs by luciferase reporter-based viral replicon assay; type: functional, organism-based, Hepacivirus hominis; details: Huh7.5, 72 h
[4] = Binding affinity to […] by fluorescence assay; set-up: species or system Hepacivirus hominis
Hepatitis C virus [5] = test: Antiviral activity against HCV genotype 1b infected in human Huh7 cells assessed as inhibition of viral replication after 72 hrs by ELISA; type: functional, organism-based, Hepacivirus hominis; details: Huh-7, 72 h
Hepatitis C virus [6] = test: Antiviral activity against HCV genotype 2a (JFH-1) infected in human Huh7 cells assessed as inhibition of viral replication by luciferase reporter-based viral replicon assay; type: functional, organism-based, Hepacivirus hominis; details: JFH-1, Huh-7
Hepatitis C virus [7] = test: Antiviral activity against HCV genotype 6a infected in human Huh7 cells assessed as inhibition of viral replication by luciferase reporter-based viral replicon assay; type: functional, organism-based, Hepacivirus hominis; details: Huh-7
Hepatitis C virus [8] = test: Antiviral activity against HCV genotype 6o infected in human Huh7 cells assessed as inhibition of viral replication by luciferase reporter-based viral replicon assay; type: functional, organism-based, Hepacivirus hominis; details: subtype 6, Huh-7
[9] = Cytotoxicity against human HuH7 cells by Cell Titer-Glo assay; type: cell-based, Huh-7
Hepatitis C virus [10] = test: Antiviral activity against HCV genotype 4a infected in human Huh7 cells assessed as inhibition of viral replication by luciferase reporter-based viral replicon assay; type: functional, organism-based, Hepacivirus hominis; details: Huh-7
Hepatitis C virus [11] = test: Antiviral activity against HCV genotype 3a infected in human Huh7 cells assessed as inhibition of viral replication by luciferase reporter-based viral replicon assay; type: functional, organism-based, Hepacivirus hominis; details: Huh-7
Hepatitis C virus [12] = test: Antiviral activity against HCV genotype 5a infected in human Huh7 cells assessed as inhibition of viral replication by luciferase reporter-based viral replicon assay; type: functional, organism-based, Hepacivirus hominis; details: Huh-7
[13] = Binding affinity to HCV NS4B […] by quantitative PCR analysis; set-up: species or system Hepacivirus hominis
Hepatitis C virus [14] = test: Antiviral activity against HCV genotype 1a (H77) infected in human Huh7 cells assessed as inhibition of viral replication by luciferase reporter-based viral replicon assay; type: functional, organism-based, Hepacivirus hominis; details: genotype 1a H77, Huh-7
Hepatitis C virus [15] = test: Antiviral activity against HCV genotype 2b infected in human Huh7 cells assessed as inhibition of viral replication by luciferase reporter-based viral replicon assay; type: functional, organism-based, Hepacivirus hominis; details: Huh-7
Hepatitis C virus [16] = test: Antiviral activity against HCV genotype 1a infected in Huh7.5 cells assessed as inhibition of viral replication after 24 hrs by renilla luciferase reporter-based viral replicon assay; type: functional, organism-based, Hepacivirus hominis; details: subtype 1a, Huh7.5, 24 h
[17] = Cytotoxicity against human Huh7.5 cells infected with HCV genotype 1b after 24 hrs by Cell Titer-Glo assay; type: cell-based, Huh-7
Hepatitis C virus [18] = test: Antiviral activity against HCV genotype 1b infected in human Huh7.5 cells assessed as inhibition of viral replication after 24 hrs by renilla luciferase reporter-based viral replicon assay; type: functional, organism-based, Hepacivirus hominis; details: Huh-7, 24 h
Hepatitis C virus [19] = test: Antiviral activity against HCV genotype 1b; type: functional, organism-based, Hepacivirus hominis
Hepatitis C virus [20] = test: Antiviral activity against HCV genotype 2a; type: functional, organism-based, Hepacivirus hominis
[21] = Cytotoxicity against human HuH7 cells infected with HCV genotype 1b after 48 hrs by WST-1 assay; type: cell-based, Huh-7
Hepatitis C virus [22] = test: Antiviral activity against HCV genotype 1a infected in Huh7 cells assessed as inhibition of viral replication after 48 hrs by luciferase reporter-based viral replicon assay; type: functional, organism-based, Hepacivirus hominis; details: subtype 1a, Huh-7, 48 h
[23] = Cytotoxicity against human HuH7 cells infected with HCV after 72 hrs by crystal violet-based assay; type: cell-based; details: huh-7, 72 h
Hepatitis C virus [24] = test: Antiviral activity against HCV genotype 1b infected in Huh7 cells assessed as inhibition of viral replication after 48 hrs by luciferase reporter-based viral replicon assay; type: functional, organism-based, Hepacivirus hominis; details: Huh-7, 48 h
Hepatitis C virus [25] = test: Antiviral activity against HCV infected in human HuH7 cells assessed as inhibition of viral replication after 72 hrs by ELISA-based viral replicon assay; type: functional, organism-based, Hepacivirus hominis; details: Huh-7, 72 h
[26] = Inhibition of HCV NS3/4A protease; set-up: species or system Hepacivirus hominis
[27] = Inhibition of HCV GST-tagged recombinant NS3/4A protease expressed in Escherichia coli by microfluidic affinity assay; set-up: species or system Hepacivirus hominis
Hepatitis C virus [28] = test: Antiviral activity against HCV genotype 2a infected in Huh7.5 cells assessed as inhibition of viral replication at 72 hrs by luciferase reporter-based viral replicon assay; type: functional, organism-based, Hepacivirus hominis; details: Huh7.5, 72 h

Structure (SMILES): CC(C)C[C@H]1CN(C/C=C/c2ccccc2)[C@@H](CC(C)C)C(=O)N1
EC90 (Hepatitis C virus [1]): 3.3 µM

Structure (SMILES): CC(C)C[C@H]1CN(C(=O)C2CC2)[C@@H](CC(C)C)C(=O)N1
EC90 (Hepatitis C virus [1]): > 10 µM

Structure (SMILES): CC(C)C[C@H]1CN(C(=O)/C=C/c2ccc([N+](=O)[O-])cc2)[C@@H](CC(C)C)C(=O)N1
EC90 (Hepatitis C virus [1]): > 10 µM

Structure (SMILES): CC(C)C[C@H]1CN(C(=O)/C=C/c2ccc(Cl)cc2)[C@@H](CC(C)C)C(=O)N1
EC90 (Hepatitis C virus [1]): 1.6 µM

Structure (SMILES): CC(C)C[C@H]1CN(C(=O)/C=C/c2ccc(F)cc2)[C@@H](CC(C)C)C(=O)N1
EC90 (Hepatitis C virus [1]): 1.5 µM

Structure (SMILES): CC(C)C[C@H]1CN(C(=O)c2coc(-c3ccccc3)n2)[C@@H](CC(C)C)C(=O)N1
EC90 (Hepatitis C virus [1]): > 10 µM

Structure (SMILES): Cc1cnc(C(=O)N[C@H]2CCCCC/C=C\[C@@H]3C[C@@]3(C(=O)NS(=O)(=O)C3CC3)NC(=O)[C@@H]3C[C@@H](Oc4nc5ccccc5c5ccccc45)CN3C2=O)cn1
EC50 (Hepatitis C virus [2]): 0.00021 µM

Structure (SMILES): Clc1ccc(Cn2c(/C=C/C3CCN(CC4CCCCC4)C3)nc3cc(Br)ccc32)cc1 (centres undefined)
EC50 (Hepatitis C virus [3]): 1.8 µM

Structure (SMILES): CC[C@H](C)[C@H]1CN(C(=O)c2cc(-c3ccc(F)cc3)on2)[C@@H](CC(C)C)C(=O)N1
EC90 (Hepatitis C virus [1]): > 10 µM

Structure (SMILES): O=C(NCc1cccs1)c1nn2c(c1Cl)N[C@H](c1ccco1)C[C@@H]2C(F)(F)F
EC50 (Hepatitis C virus [16]): 0.62 µM
CC50 at 24 h [17]: > 100 µM
EC50 (Hepatitis C virus [18]): 0.63 µM

Structure (SMILES): O=C(NCc1cccs1)c1nn2c(c1Cl)NC(c1ccco1)CC2C(F)(F)F (racemic)
CC50 at 24 h [17]: > 100 µM
EC50 (Hepatitis C virus [18]): 1.78 µM

Structure (SMILES): CC(C)CN(C)c1nc(N)c(C(=O)N=C(N)N)nc1Cl [5-(N-METHYL-N-ISOBUTYL)AMILORIDE]
EC50 (Hepatitis C virus [19]): 2.5 µM
EC50 (Hepatitis C virus [20]): 3.7 µM

Structure (SMILES): CC(C)(C)NC(=O)N[C@H](C(=O)N1C[C@H]2[C@@H]([C@H]1C(=O)NC(CC1CCC1)C(=O)C(N)=O)C2(C)C)C(C)(C)C (some centres undefined) [BOCEPREVIR]
Ki [26]: 0.014 µM

Further lines, with some results ahead:

EC90 (Hepatitis C virus [1]): > 10 µM
Structure (SMILES): CC(C)C[C@H]1CN(C(=O)c2cccc(-c3ccccc3)c2)[C@@H](CC(C)C)C(=O)N1

EC50 (Hepatitis C virus [3]): 3.3 µM
Structure (SMILES): C[C@H]1CCCN1CCCOc1nn(Cc2ccc(Cl)cc2)c2ccc(-c3ccc(N4CCOCC4)nc3)cc12

Kd [4]: 1 µM
EC50 (Hepatitis C virus [5]): 3.2 µM
Structure (SMILES): CC(=O)c1ccc(NC(=O)c2cc3c(C)nn(-c4ccccc4)c3s2)cc1

Kd [4]: 6.9 µM
EC50 (Hepatitis C virus [5]): 2.8 µM
Structure (SMILES): CC(C)c1ccc(NC(=O)c2ccccc2)cc1

EC50 (Hepatitis C virus [6]): 7.6 µM
EC50 (Hepatitis C virus [7]): 0.8 µM
EC50 (Hepatitis C virus [8]): 9.5 µM
EC50 (Hepatitis C virus [10]): 0.2 µM
EC50 (Hepatitis C virus [11]): 0.0438 µM
EC50 (Hepatitis C virus [12]): 0.0266 µM
Kd [13]: 0.0458 µM
EC50 (Hepatitis C virus [14]): 0.8 µM
EC50 (Hepatitis C virus [1]): 0.02 µM
EC50 (Hepatitis C virus [15]): 2.2 µM
Structure (SMILES): O=C(c1ccccc1)N1CCC2(CCCN(c3ncc(-c4ccccc4)c(-c4ccc(Cl)cc4)n3)C2)CC1
CC50 [9]: > 43 µM

EC50 (Hepatitis C virus [3]): 3.7 µM
Structure (SMILES): Clc1ccc(Cn2nc(OCCCN3CCCC3)c3ccccc32)cc1

Kd [4]: 0.3 µM
EC50 (Hepatitis C virus [5]): 0.7 µM
Structure (SMILES): COC(=O)c1c(NC(=O)Cc2cccs2)sc(C(=O)Nc2ccc(Cl)cc2)c1C

Kd [13]: 0.0529 µM
EC50 (Hepatitis C virus [14]): 2.2 µM
EC50 (Hepatitis C virus [1]): 0.172 µM
Structure (SMILES): O=C(c1ccccc1)N1CCC2(CCCN(c3ncc(Br)c(-c4ccc(Cl)cc4)n3)C2)CC1
CC50 [9]: 38.7 µM

Kd [4]: 2.1 µM
EC50 (Hepatitis C virus [5]): 2.2 µM
Structure (SMILES): Cc1nccn1-c1nc(-c2ccc(Cl)cc2)cc(C(F)(F)F)n1

Kd [4]: 1.7 µM
EC50 (Hepatitis C virus [5]): 1.5 µM
Structure (SMILES): COc1ccc(Cl)cc1Nc1nc(-c2cccnc2)cs1

Kd [4]: 0.662 µM
EC50 (Hepatitis C virus [22]): 0.56 µM
EC50 (Hepatitis C virus [24]): 0.31 µM
EC50 (Hepatitis C virus [25]): 0.63 µM
Structure (SMILES): O=C(NCc1cccs1)c1cc2nc(-c3ccco3)cc(C(F)(F)Cl)n2n1 [ANGUIZOLE]
CC50 at 48 h [21]: > 50 µM
CC75 [23]: > 100 µM

EC50 (Hepatitis C virus [3]): 23 µM
IC50 [27]: 0.024 µM
EC50 (Hepatitis C virus [28]): 8 µM
Structure (SMILES): Clc1ccc(Cn2c(CN3CCCC3)nc3ccccc32)cc1 [CLEMIZOLE]
